Source: US20240336574A1 (LATIGO BIOTHERAPEUTICS, INC., priority 2021, published 2024)
Like-named read-outs stand apart in the source and are kept apart here.

Biological target: T1, recombinant human NaV1.8 stably transfected HEK cells (Homo sapiens, UniProt Q9Y5Y9)
T1 construct: expressed in transfected cells; host or cells: HEK cells, stably transfected
Test: Compound profiling on NaV1.8, human NaV1.8 cell line, SyncroPatch384PE automated patch clamp assay (Example 102, first set of compounds, Table 16)
Assay type: cell-based
Conditions: human NaV1.8 HEK cells, Table 16 (first set of compounds)
Procedure, shortened: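 Automated whole-cell patch clamp on HEK cells precultured at 30 °C one day before recording; CsF-based internal, 140 mM NaCl external. 10-point curve, 20–0.001 μM final, 0.1% DMSO, 5 min exposure. IC50 for resting (P1, −120 mV hold) and inactivated (P2, after 10 s at −40 mV) block, normalized to 250 μM tetracaine and DMSO.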

[1] = resting state block (P1 measurement), read-out: P1IC50
[2] = inactivated state block (P2 measurement), read-out: P2IC50

T1 sequence (Q9Y5Y9 whole entry): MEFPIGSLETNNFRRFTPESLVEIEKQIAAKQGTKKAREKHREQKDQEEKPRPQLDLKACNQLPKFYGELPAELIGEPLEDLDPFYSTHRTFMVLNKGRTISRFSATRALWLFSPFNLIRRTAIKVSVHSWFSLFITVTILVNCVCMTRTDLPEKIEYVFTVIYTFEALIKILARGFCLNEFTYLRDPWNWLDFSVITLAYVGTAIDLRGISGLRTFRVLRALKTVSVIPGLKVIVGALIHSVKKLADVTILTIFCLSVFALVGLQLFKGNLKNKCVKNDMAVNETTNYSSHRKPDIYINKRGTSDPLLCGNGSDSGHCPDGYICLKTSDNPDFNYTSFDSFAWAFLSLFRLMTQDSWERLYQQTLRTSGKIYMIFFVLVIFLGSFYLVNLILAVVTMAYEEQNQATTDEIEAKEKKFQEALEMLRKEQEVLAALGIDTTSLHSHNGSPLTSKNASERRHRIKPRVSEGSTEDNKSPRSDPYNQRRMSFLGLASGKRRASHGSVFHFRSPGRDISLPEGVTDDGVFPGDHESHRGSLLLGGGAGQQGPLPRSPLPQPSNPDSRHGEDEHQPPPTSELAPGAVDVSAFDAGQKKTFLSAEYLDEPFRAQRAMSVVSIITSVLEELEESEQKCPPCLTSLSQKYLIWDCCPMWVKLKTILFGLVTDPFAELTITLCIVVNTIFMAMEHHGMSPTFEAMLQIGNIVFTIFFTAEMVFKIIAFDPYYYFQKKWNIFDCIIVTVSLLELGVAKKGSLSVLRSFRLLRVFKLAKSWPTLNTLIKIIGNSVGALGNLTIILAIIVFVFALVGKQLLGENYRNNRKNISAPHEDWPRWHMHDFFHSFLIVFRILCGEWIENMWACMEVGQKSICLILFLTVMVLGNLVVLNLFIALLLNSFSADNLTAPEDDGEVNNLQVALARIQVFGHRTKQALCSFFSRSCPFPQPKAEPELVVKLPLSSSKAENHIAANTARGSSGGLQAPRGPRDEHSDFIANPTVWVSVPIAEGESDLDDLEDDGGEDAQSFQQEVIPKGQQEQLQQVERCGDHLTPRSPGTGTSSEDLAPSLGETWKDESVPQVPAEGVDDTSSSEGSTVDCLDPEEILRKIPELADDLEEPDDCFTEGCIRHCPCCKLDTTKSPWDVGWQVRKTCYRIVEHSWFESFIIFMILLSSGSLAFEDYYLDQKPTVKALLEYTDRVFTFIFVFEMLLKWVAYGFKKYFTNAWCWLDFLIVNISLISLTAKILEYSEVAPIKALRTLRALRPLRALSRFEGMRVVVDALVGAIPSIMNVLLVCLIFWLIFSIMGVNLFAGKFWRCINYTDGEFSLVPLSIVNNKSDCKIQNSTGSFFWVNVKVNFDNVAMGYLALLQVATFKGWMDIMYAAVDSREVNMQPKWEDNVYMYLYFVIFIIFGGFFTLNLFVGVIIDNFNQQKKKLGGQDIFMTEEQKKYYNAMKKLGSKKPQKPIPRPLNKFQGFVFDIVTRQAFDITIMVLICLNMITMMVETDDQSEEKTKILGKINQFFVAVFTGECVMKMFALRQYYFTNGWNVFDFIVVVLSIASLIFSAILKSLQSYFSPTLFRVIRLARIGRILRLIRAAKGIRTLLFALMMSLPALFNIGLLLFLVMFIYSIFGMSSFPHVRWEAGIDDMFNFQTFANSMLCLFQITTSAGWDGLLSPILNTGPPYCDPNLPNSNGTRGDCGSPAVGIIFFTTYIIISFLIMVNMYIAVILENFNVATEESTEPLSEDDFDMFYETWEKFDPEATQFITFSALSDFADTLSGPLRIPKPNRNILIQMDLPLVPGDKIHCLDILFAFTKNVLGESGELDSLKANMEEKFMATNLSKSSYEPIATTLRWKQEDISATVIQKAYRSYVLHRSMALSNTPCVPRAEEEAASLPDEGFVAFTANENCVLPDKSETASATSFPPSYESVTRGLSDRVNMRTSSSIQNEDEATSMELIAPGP

| IC50 [1] [nM] | IC50 [2] [nM] | Structure (SMILES) |
| --- | --- | --- |
| ≤ 20 |  | Cc1c(Oc2ncc(C(F)(F)F)cc2C(=O)Nc2cccc(S(C)(=N)=O)c2)ccc(OC(F)(F)F)c1F (single isomer, unassigned) [Compound 1715] |
| ≤ 20 | ≤ 20 | CC(C)Oc1ccc(Oc2ncc(C(F)(F)F)cc2C(=O)Nc2cccc(S(C)(=N)=O)c2)cc1F (stereo not drawn) [Compound 1647] |
| 40 to 200 | 40 to 200 | COc1cc(F)ccc1Oc1ncc(C(F)(F)F)cc1C(=O)Nc1cc(S(C)(=O)=O)ccc1F [Compound 1576] |
| ≤ 20 | ≤ 20 | Cc1ccc(Oc2ncc(C(F)(F)F)cc2C(=O)Nc2cccc(S(C)(=N)=O)c2)c(OC(F)F)n1 (stereo not drawn) [Compound 1690] |
| ≤ 20 | ≤ 20 | CC(C)Oc1ccc(Oc2ncc(C(F)(F)F)cc2C(=O)Nc2cccc(S(C)(=N)=O)c2)c(F)c1F (stereo not drawn) [Compound 1707] |
| ≤ 20 | ≤ 20 | Cc1c(C(F)(F)F)nnc(Oc2ccc(OC(C)C)c(F)c2F)c1C(=O)Nc1cccc(S(C)(=O)=O)c1 [Compound 1424] |
| ≤ 20 | ≤ 20 | COc1cc(F)c(F)cc1Oc1ncc(C(F)(F)F)cc1C(=O)Nc1cccc(S(C)(=O)=O)c1 [Compound 1615] |

Further lines, the compound ahead of its results:

| Structure (SMILES) | IC50 [1] [nM] | IC50 [2] [nM] |
| --- | --- | --- |
| COc1cc(C#N)ccc1Oc1nnc(-c2cnc(C)nc2)c(C)c1C(=O)Nc1cccc(S(C)(=N)=O)c1 (stereo not drawn) [Compound 1457, 3-(4-cyano-2-methoxy-phenoxy)-5-methyl-6-(2-methylpyrimidin-5-yl)-N-[3-(methylsulfonimidoyl)phenyl]pyridazine-4-carboxamide] | 200 to 500 | 200 to 500 |
| Cc1c(C(F)(F)F)nnc(Oc2ccc(Cl)cc2F)c1C(=O)Nc1cccc(S(C)(=N)=O)c1 (single isomer, unassigned) [Compound 1472, 3-(4-chloro-2-fluoro-phenoxy)-5-methyl-N-[3-(methylsulfonimidoyl)phenyl]-6-(trifluoromethyl)pyridazine-4-carboxamide] | ≤ 20 |  |
| Cc1cc(F)ccc1Oc1nnc(C(F)(F)F)c(C)c1C(=O)Nc1cccc(S(C)(=N)=O)c1 (stereo not drawn) [Compound 20, 3-(4-Fluoro-2-methylphenoxy)-5-methyl-N-(3-(S-methylsulfonimidoyl)phenyl)-6-(trifluoromethyl)pyridazine-4-carboxamide] | ≤ 20 | 20 to 40 |
| Cc1c(C(F)(F)F)nnc(Oc2ccc(OC(F)(F)F)cc2F)c1C(=O)Nc1cccc(S(C)(=N)=O)c1 (stereo not drawn) [Compound 1495, 3-[2-fluoro-4-(trifluoromethoxy)phenoxy]-5-methyl-N-[3-(methylsulfonimidoyl)phenyl]-6-(trifluoromethyl)pyridazine-4-carboxamide] | ≤ 20 | ≤ 20 |
| COc1nc(C2CC2)ccc1Oc1nnc(C(F)(F)F)c(C)c1C(=O)Nc1cccc(S(C)(=N)=O)c1 (stereo not drawn) [Compound 1550, 3-[(6-cyclopropyl-2-methoxy-3-pyridyl)oxy]-5-methyl-N-[3-(methylsulfonimidoyl)phenyl]-6-(trifluoromethyl)pyridazine-4-carboxamide] | ≤ 20 | ≤ 20 |
| Cc1c(Oc2nnc(C(F)(F)F)c(C)c2C(=O)Nc2cccc(S(C)(=O)=O)c2)ccc(Cl)c1F [Compound 1421] | ≤ 20 | ≤ 20 |
| Cc1c(C(F)(F)F)nnc(Oc2ccc(OC(F)F)c(F)c2F)c1C(=O)Nc1cccc(S(C)(=O)=O)c1 [Compound 1422] | ≤ 20 | ≤ 20 |
| NC(=O)c1cccc(NC(=O)c2cc(C(F)(F)F)cnc2OC23CC(C(F)(F)F)(C2)C3)c1 [Compound 1634] | 200 to 500 | 200 to 500 |
| Cc1c(Oc2nnc(C(F)(F)F)c(C)c2C(=O)Nc2cccc(S(C)(=N)=O)c2)ccc(Cl)c1F (single isomer, unassigned) [Compound 1487, 3-(4-chloro-3-fluoro-2-methyl-phenoxy)-5-methyl-N-[3-(methylsulfonimidoyl)phenyl]-6-(trifluoromethyl)pyridazine-4-carboxamide] | ≤ 20 | ≤ 20 |
